Values after ≈ are worked out from the molar mass of the structure shown.
Tests used:
Test in all cases: ≥ marks a high value that may be exact or a test limit, other limits are often not marked, values filed in µg/mL are converted to µM
[1] = tested on: Bacillus subtilis IAM 1026
[2] = tested on: Vibrio parahaemolyticus Vp+1
[3] = tested on: Photobacterium damselae subsp. piscicida Sp 9587
[4] = tested on: Aeromonas salmonicida NCIMB 1102
[5] = tested on: Shewanella putrefaciens IAM 1509
[6] = tested on: Vibrio anguillarum NCIMB 829
[7] = tested on: Staphylococcus aureus IAM 1011
[8] = tested on: Escherichia coli JCM 1649
[9] = tested on: Salmonella typhimurium
[10] = tested on: Staphylococcus aureus
[11] = tested on: Pseudomonas aeruginosa ATCC 9027
[12] = tested on: Staphylococcus aureus ATCC 6538
[13] = tested on: Candida albicans ATCC 36232
[14] = tested on: Escherichia coli ATCC 2592
[15] = tested on: Micrococcus luteus ATCC 9341
[16] = tested on: Proteus vulgaris ATCC 6380
[17] = tested on: Pectobacterium carotovorum subsp. carotovorum DSM 30168
[18] = tested on: Xanthomonas vesicatoria DSM 50861
[19] = tested on: Clavibacter michiganensis subsp. michiganensis DSM 46294
[20] = tested on: Pseudomonas syringae pv. tomato DC3000
[21] = tested on: Pseudomonas corrugata DSM 7228
[22] = tested on: Pseudomonas syringae pv. syringae DSM 10604
[23] = tested on: Escherichia coli IFO 12734
[24] = tested on: Staphylococcus aureus IFO 12732
[25] = tested on: Pseudomonas aeruginosa IFO 12582
[26] = tested on: Bacillus subtilis IFO 3134
[27] = tested on: Staphylococcus aureus A170
[28] = tested on: Staphylococcus epidermidis
[29] = tested on: Saccharomyces cerevisiae S288C
[30] = tested on: Streptococcus mutans UA159
[31] = tested on: Cryptococcus neoformans ATCC 52817
[32] = tested on: Streptococcus gordonii ATCC 10558
[33] = tested on: Cryptococcus neoformans CN2
[34] = tested on: Candida glabrata 65C
[35] = tested on: Candida glabrata ATCC 90030
[36] = tested on: Candida albicans ATCC 96112
[37] = tested on: Streptococcus mutans GS-5
[38] = tested on: Streptococcus sanguinis ATCC 49295
[39] = tested on: Escherichia coli BL21(DE3)
[40] = tested on: Escherichia coli JM109
[41] = tested on: Cupriavidus necator H16
[42] = tested on: Pseudomonas putida GPp104
[43] = tested on: Penicillium expansum EPS 26
[44] = tested on: Rhizopus stolonifer CECT 2344
[45] = tested on: Aspergillus niger CECT 2694
[46] = tested on: Fusarium oxysporum f. sp. lycopersici ATCC 201829

## CC[C@H](C)[C@H](NC(=O)[C@H](C)NC(=O)[C@H](Cc1cnc[nH]1)NC(=O)[C@@H](NC(=O)[C@@H](NC(=O)[C@H](Cc1cnc[nH]1)NC(=O)[C@H](Cc1cnc[nH]1)NC(=O)[C@@H](NC(=O)[C@@H](N)Cc1ccccc1)[C@@H](C)CC)[C@@H](C)CC)C(C)C)C(=O)NCC(=O)N[C@@H](CCCN=C(N)N)C(=O)N[C@@H](CC(C)C)C(=O)N[C@@H](Cc1ccccc1)C(N)=O [FIHHIVHAIGRLF]
[1]
  MIC: 8.01 µM (≈ 12.5 µg/mL)
[2]
  MIC: ≥ 32.1 µM
[3]
  MIC: 8.01 µM (≈ 12.5 µg/mL)
[4]
  MIC: 16 µM (≈ 25 µg/mL)
[5]
  MIC: 4.01 µM (≈ 6.25 µg/mL)
[6]
  MIC: ≥ 32.1 µM
[7]
  MIC: 2.01 µM (≈ 3.13 µg/mL)
[8]
  MIC: ≥ 32.1 µM
[9]
  MIC: ≥ 32.1 µM

## CC[C@H](C)[C@H](NC(=O)[C@H](CCCCN)NC(=O)[C@@H]1CCCN1C(=O)[C@H](CC(C)C)NC(=O)[C@H](Cc1ccccc1)NC(=O)[C@H](CC(N)=O)NC(=O)[C@H](C)NC(=O)[C@H](C)NC(=O)[C@H](CC(C)C)NC(=O)CN)C(=O)N[C@@H](Cc1ccccc1)C(=O)N[C@@H](CS)C(=O)N[C@@H](CCCCN)C(=O)N[C@H](C(=O)N[C@H](C(=O)N[C@@H](CCCN=C(N)N)C(=O)N[C@@H](CCCCN)C(=O)N[C@@H](CS)C(N)=O)[C@@H](C)O)[C@@H](C)CC [GLAANFLPKIFCKITRKC]
[10]
  MIC: 49.4 µM (≈ 100 µg/mL)
[11]
  MIC: 6.18 µM (≈ 12.5 µg/mL)
[12]
  MIC: 12.4 µM (≈ 25 µg/mL)
[13]
  MIC: 12.4 µM (≈ 25 µg/mL)
[14]
  MIC: 12.4 µM (≈ 25 µg/mL)
[15]
  MIC: 6.18 µM (≈ 12.5 µg/mL)
[16]
  MIC: ≥ 49.4 µM

## CC[C@H](C)[C@H](NC(=O)[C@H](CC(C)C)NC(=O)[C@H](CCCN=C(N)N)NC(=O)[C@H](CCCN=C(N)N)NC(=O)[C@@H](N)CCCCN)C(=O)N[C@@H](Cc1ccccc1)C(=O)N[C@@H](CCCN=C(N)N)C(=O)N[C@H](C(=O)N[C@@H](CC(C)C)C(=O)N[C@@H](CCCCN)C(=O)N[C@@H](CC(C)C)C(=O)N[C@@H](Cc1ccccc1)C(=O)N[C@@H](Cc1ccccc1)C(=O)N[C@@H](CCCN=C(N)N)C(=O)N[C@@H](Cc1ccccc1)C(=O)N[C@@H](CC(C)C)C(=O)N[C@H](C(=O)N[C@@H](CCCCN)C(=O)N[C@@H](CCCCN)C(=O)N[C@@H](CCCN=C(N)N)C(N)=O)C(C)C)[C@@H](C)CC [KRRLIFRILKLFFRFLVKKR]
[17]
  MIC: 3.73 µM (≈ 10 µg/mL)
[18]
  MIC: 0.933 µM (≈ 2.5 µg/mL)
[19]
  MIC: 0.373 µM (≈ 1 µg/mL)
[20]
  MIC: 3.73 µM (≈ 10 µg/mL)
[21]
  MIC: 1.87 µM (≈ 5 µg/mL)
[22]
  MIC: 3.73 µM (≈ 10 µg/mL)

## CC[C@H](C)[C@H](NC(=O)[C@H](C)NC(=O)[C@@H]1CCCN1C(=O)[C@@H](NC(=O)[C@@H](NC(=O)[C@H](Cc1cnc[nH]1)NC(=O)[C@H](C)NC(=O)[C@H](C)NC(=O)[C@@H](NC(=O)[C@H](CCCCN)NC(=O)[C@H](C)NC(=O)[C@H](CC(C)C)NC(=O)[C@@H](NC(=O)CNC(=O)[C@H](Cc1ccccc1)NC(=O)[C@@H](N)CC(C)C)C(C)C)C(C)C)C(C)C)C(C)C)C(=O)N[C@@H](C)C(=O)N[C@@H](CCC(=O)O)C(=O)N[C@@H](Cc1cnc[nH]1)C(=O)N[C@@H](Cc1ccccc1)C(N)=O [LFGVLAKVAAHVVPAIAEHF]
[23]
  MIC: ≥ 64 µM
[24]
  MIC: ≥ 64 µM
[25]
  MIC: ≥ 64 µM
[26]
  MIC: ≥ 64 µM

## CC[C@H](C)[C@H](NC(=O)[C@H](C)NC(=O)[C@H](CC(C)C)NC(=O)[C@@H](N)CC(C)C)C(=O)N[C@H](C(=O)NCC(=O)N[C@@H](CC(N)=O)C(=O)N[C@@H](CC(C)C)C(=O)N[C@@H](CC(C)C)C(=O)N[C@@H](CCCCN)C(=O)N[C@@H](CO)C(=O)N[C@@H](CC(C)C)C(=O)N[C@@H](CC(C)C)C(=O)O)C(C)C [LLAIVGNLLKSLL]
[27]
  MIC: 7.32 µM (≈ 10 µg/mL)
[28]
  MIC: 7.32 µM (≈ 10 µg/mL)

## CC(C)C[C@H](NC(=O)[C@H](CS)NC(=O)[C@H](CCCCN)NC(=O)[C@H](Cc1ccc(O)cc1)NC(=O)[C@H](CO)NC(=O)[C@H](CCCCN)NC(=O)[C@@H](N)CCCN=C(N)N)C(=O)N[C@@H](Cc1cnc[nH]1)C(=O)N[C@@H](CCCCN)C(=O)N[C@@H](CCCN=C(N)N)C(=O)N[C@@H](CS)C(=O)N[C@@H](CCCN=C(N)N)C(=O)O [RKSYKCLHKRCR]
[29]
  MIC: 3.96 µM (≈ 6.25 µg/mL)
[30]
  MIC: 30.4 µM (≈ 48 µg/mL)
[31]
  MIC: 3.96 µM (≈ 6.25 µg/mL)
[32]
  MIC: ≥ 54.1 µM
[33]
  MIC: 1.98 µM (≈ 3.13 µg/mL)
[34]
  MIC: 3.96 µM (≈ 6.25 µg/mL)
[35]
  MIC: 15.8 µM (≈ 25 µg/mL)
[36]
  MIC: 3.96 µM (≈ 6.25 µg/mL)
[37]
  MIC: ≥ 37.2 µM
[38]
  MIC: ≥ 74.4 µM

## CC[C@H](C)[C@H](NC(=O)[C@H](Cc1ccc(O)cc1)NC(=O)[C@@H](NC(=O)[C@@H]1CCCN1C(=O)[C@H](CCCN=C(N)N)NC(=O)[C@H](CCCN=C(N)N)NC(=O)[C@@H](NC(=O)[C@@H](N)CCCN=C(N)N)C(C)C)C(C)C)C(=O)N1CCC[C@H]1C(=O)N[C@@H](CCC(N)=O)C(=O)N1CCC[C@H]1C(=O)N[C@@H](CCCN=C(N)N)C(=O)N1CCC[C@H]1C(=O)N1CCC[C@H]1C(=O)N[C@@H](Cc1cnc[nH]1)C(=O)N1CCC[C@H]1C(=O)N[C@@H](CCCN=C(N)N)C(=O)N[C@@H](CC(C)C)C(=O)O [RVRRPVYIPQPRPPHPRL]
[39]
  MIC: 0.313 µM (≈ 0.699 µg/mL)
[40]
  MIC: 2.5 µM (≈ 5.59 µg/mL)
[41]
  MIC: 10 µM (≈ 22.3 µg/mL)
[42]
  MIC: 3.13 µM (≈ 6.99 µg/mL)

## CC[C@H](C)[C@H](NC(=O)[C@H](CCCCN)NC(=O)[C@H](CCCCN)NC(=O)[C@H](Cc1ccccc1)NC(=O)[C@H](CC(C)C)NC(=O)[C@H](CCCCN)NC(=O)[C@@H](N)Cc1c[nH]c2ccccc12)C(=O)N[C@@H](CC(C)C)C(=O)N[C@@H](CCCCN)C(=O)N[C@@H](CCCCN)C(=O)N[C@@H](CC(C)C)C(N)=O [WKLFKKILKKL]
[43]
  MIC: ≥ 70.7 µM
[44]
  MIC: ≥ 35.4 µM
[45]
  MIC: 22.4 µM (≈ 32.3 µg/mL)
[46]
  MIC: 1.73 µM (≈ 2.5 µg/mL)

— DBAASP
